Experimental data taken from patent publication US12371454B2, “Cyclic peptide compound having Kras inhibitory action” (priority 2019, dated 2025).
pIC50: −log10 of the molar value. Starred links: 1 amine or outer side, 2 acyl side, 3 side chain; linkers in the order of their positions; H or OH if unused. Positions of bridges follow the written chain, without caps; N, C: chain ends. Non-standard residues stand in square brackets, D forms with d. Residues, ends and D or L forms follow the SMILES beside them. *: point of attachment. hPhe(3-Cl-4-CF3) = N[C@@H](CCc1ccc(C(F)(F)F)c(Cl)c1)C(=O)O; X38 = CN([C@@H](Cc1cccc(OC(F)(F)F)c1)C(=O)[*:2])[*:1]; NMePhe(4-CF3) = CN[C@@H](Cc1ccc(C(F)(F)F)cc1)C(=O)O; hPhe(4-CF3) = N[C@@H](CCc1ccc(C(F)(F)F)cc1)C(=O)O; NMeAla(4-thiazolyl) = CN[C@@H](Cc1cscn1)C(=O)O; NMeAbu(4,4,4-F3) = CN[C@@H](CC(F)(F)F)C(=O)O; NMePhe(3-Cl) = CN[C@@H](Cc1cccc(Cl)c1)C(=O)O; NMePhe(4-Cl) = CN[C@@H](Cc1ccc(Cl)cc1)C(=O)O; NMePhe(4-Me) = CN[C@@H](Cc1ccc(C)cc1)C(=O)O; NMePhe(4-F) = CN[C@@H](Cc1ccc(F)cc1)C(=O)O; NMePhe(2-Me) = CN[C@@H](Cc1ccccc1C)C(=O)O; NMedβ3hAla = C[C@H](CC(=O)[*:2])N(C)[*:1]; NMeGly(cPent) = CN[C@H](C(=O)O)C1CCCC1; Phe(3-I) = N[C@@H](Cc1cccc(I)c1)C(=O)O; NMeCha = CN[C@@H](CC1CCCCC1)C(=O)O; NMeCba = CN[C@@H](CC1CCC1)C(=O)O; NMeChg = CN[C@H](C(=O)O)C1CCCCC1; NMeF = CN[C@@H](Cc1ccccc1)C(=O)O; NMeI = CC[C@H](C)[C@H](NC)C(=O)O; Cha = N[C@@H](CC1CCCCC1)C(=O)O; NMeD = CN[C@@H](CC(=O)O)C(=O)O; NMeL = CN[C@@H](CC(C)C)C(=O)O; NMeV = CN[C@H](C(=O)O)C(C)C; d(β3hA) = C[C@@H](N)CC(=O)O; NMeS = CN[C@@H](CO)C(=O)O; NMeA = CN[C@@H](C)C(=O)O; NMeAib = CNC(C)(C)C(=O)O; Nle = CCCC[C@H](N)C(=O)O; Piperidide = C1CCN(*)CC1; Pyrrolidide = C1CCN(*)C1; dNMeA = CN[C@H](C)C(=O)O; Ac5c = NC1(C(=O)O)CCCC1; Aze = O=C(O)[C@@H]1CCN1; Nva = CCC[C@H](N)C(=O)O; Isopentyl = CC(C)CC*; Sar = CNCC(=O)O

target: T1, Kras and SOS1 (biotin-tagged human Kras loaded with GDP, His-tagged human SOS1) (Homo sapiens, UniProt P01116, G12D); test: Protein-protein interaction inhibition between Kras and SOS1 (KrasGl2D-SOS PPI) using AlphaScreen; type: binding; details: AlphaScreen; biotin-tagged human Kras loaded with GDP, His-tagged human SOS1; read-out: KRAS G12D-SOS PPI IC50
T1 construct: made in house; host or cells: E. coli (stated for Kras only)
Outline: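 Binding between SOS1 and Kras is detected as bead-proximity luminescence: illuminate Ni-conjugated donors (680 nm), collect 520-620 nm emission from streptavidin-conjugated acceptors; Kras carries biotin and GDP loaded after purification, SOS1 carries a His tag.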

T1 sequence (P01116 1-188 isoform P01116-2 G12D): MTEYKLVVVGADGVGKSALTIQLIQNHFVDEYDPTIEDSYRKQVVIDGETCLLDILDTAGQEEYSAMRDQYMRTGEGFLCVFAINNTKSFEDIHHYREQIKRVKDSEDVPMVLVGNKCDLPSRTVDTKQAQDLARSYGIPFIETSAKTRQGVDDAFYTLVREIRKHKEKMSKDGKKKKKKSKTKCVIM

Structure (SMILES)	pIC50
CC[C@H](C)[C@@H]1NC(=O)[C@H](C)N(C)C(=O)C[C@@H](C(=O)N2CCCC2)NC(=O)[C@H](CC(C)C)N(C)C(=O)[C@H](Cc2ccccc2)N(C)C(=O)[C@H](CC(C)C)NC(=O)[C@H](Cc2ccccc2)NC(=O)CN(C)C(=O)[C@H](Cc2ccc(Cl)cc2)N(C)C(=O)CN(C)C(=O)CN(C)C1=O [Compound 613] ([NMeA]I[Sar][Sar][NMePhe(4-Cl)][Sar]FL[NMeF][NMeL]D-Pyrrolidide; lactam N-11)	6.30
CC[C@H](C)[C@@H]1NC(=O)[C@H](C)N(C)C(=O)C[C@@H](C)N(C)C(=O)[C@H](CC(C)C)NC(=O)C(C)(C)N(C)C(=O)[C@H](CC(C)C)NC(=O)[C@H](CCc2ccc(C(F)(F)F)c(Cl)c2)NC(=O)CN(C)C(=O)[C@H](CC2CCCCC2)N(C)C(=O)[C@@H]2CCN2C(=O)[C@H](C)N(C)C1=O [Compound 1391] (cyclo([Aze][NMeCha][Sar][hPhe(3-Cl-4-CF3)]L[NMeAib]L[NMedβ3hAla][NMeA]I[NMeA]))	7.19
CC[C@H](C)[C@@H]1NC(=O)[C@H](C)N(C)C(=O)C[C@@H](C(=O)N2CCCC2)NC(=O)[C@H](CC(C)C)N(C)C(=O)[C@H](COCCC(C)C)N(C)C(=O)[C@H](CC(C)C)NC(=O)[C@H](CCc2ccc(C(F)(F)F)cc2)NC(=O)CN(C)C(=O)[C@H](Cc2ccc(Cl)cc2)N(C)C(=O)CN(C)C(=O)CN(C)C1=O [Compound 675] ([NMeA]I[Sar][Sar][NMePhe(4-Cl)][Sar][hPhe(4-CF3)]L[NMeS](Isopentyl)[NMeL]D-Pyrrolidide; lactam N-11)	7.23
CC[C@H](C)[C@@H]1NC(=O)[C@H](CC(C)C)N(C)C(=O)C[C@@H](C(=O)N(C)C)N(C)C(=O)[C@H]([C@@H](C)CC)N(C)C(=O)C2(CCCC2)NC(=O)[C@H](Cc2cccc(OC(F)(F)F)c2)N(C)C(=O)[C@H](CCc2ccc(C(F)(F)F)c(Cl)c2)NC(=O)CN(C)C(=O)[C@H](Cc2ccc(C)cc2)N(C)C(=O)[C@@H]2CCN2C(=O)[C@H](C)N(C)C1=O [Compound 1970] ([NMeL]I[NMeA][Aze][NMePhe(4-Me)][Sar][hPhe(3-Cl-4-CF3)][X38][Ac5c][NMeI][NMeD]-NMe2; lactam N-11)	7.28
CC[C@H](C)[C@@H]1NC(=O)[C@H](CC(C)C)N(C)C(=O)C[C@@H](C)NC(=O)[C@H](C(C)C)N(C)C(=O)C2(CCCC2)NC(=O)[C@@H]2CCCN2C(=O)[C@H](CCc2ccc(C(F)(F)F)c(Cl)c2)NC(=O)CN(C)C(=O)[C@H](Cc2cccc(Cl)c2)N(C)C(=O)CN(C)C(=O)CN(C)C1=O [Compound 1623] (cyclo([Ac5c][NMeV][d(β3hA)][NMeL]I[Sar][Sar][NMePhe(3-Cl)][Sar][hPhe(3-Cl-4-CF3)]P))	7.27
CC[C@H](C)[C@@H]1NC(=O)[C@H](C)N(C)C(=O)C[C@@H](C)N(C)C(=O)[C@H](CC(C)C)NC(=O)C(C)(C)N(C)C(=O)[C@H](CC(C)C)NC(=O)[C@H](CCc2ccc(C(F)(F)F)c(Cl)c2)NC(=O)CN(C)C(=O)[C@H](Cc2ccc(C(F)(F)F)cc2)N(C)C(=O)[C@@H]2CCN2C(=O)CN(C)C1=O [Compound 1392] (cyclo([Aze][NMePhe(4-CF3)][Sar][hPhe(3-Cl-4-CF3)]L[NMeAib]L[NMedβ3hAla][NMeA]I[Sar]))	7.55
CC[C@H](C)[C@@H]1NC(=O)[C@H](CC(C)C)N(C)C(=O)C[C@@H](C(=O)N2CCCCC2)N(C)C(=O)[C@H](C2CCCCC2)N(C)C(=O)C2(CCCC2)NC(=O)[C@@H]2CCCN2C(=O)[C@H](CCc2ccc(C(F)(F)F)c(Cl)c2)NC(=O)CN(C)C(=O)[C@H](CC(F)(F)F)N(C)C(=O)CN(C)C(=O)CN(C)C1=O [Compound 1841] ([NMeL]I[Sar][Sar][NMeAbu(4,4,4-F3)][Sar][hPhe(3-Cl-4-CF3)]P[Ac5c][NMeChg][NMeD]-Piperidide; lactam N-11)	8.36
CC[C@H](C)[C@@H]1NC(=O)[C@H](C)N(C)C(=O)C[C@@H](C)NC(=O)[C@H](C(C)C)N(C)C(=O)C2(CCCC2)NC(=O)[C@@H]2CCCN2C(=O)[C@H](CCc2ccc(C(F)(F)F)c(Cl)c2)NC(=O)CN(C)C(=O)[C@H](Cc2ccc(F)cc2)N(C)C(=O)[C@@H]2CCCN2C(=O)CN(C)C1=O [Compound 1732] (cyclo([Ac5c][NMeV][d(β3hA)][NMeA]I[Sar]P[NMePhe(4-F)][Sar][hPhe(3-Cl-4-CF3)]P))	8.26
CC(C)C[C@H]1C(=O)N[C@@H](CC2CCCCC2)C(=O)N(C)CC(=O)N(C)CC(=O)N(C)[C@@H](CC2CCCCC2)C(=O)N(C)CC(=O)N[C@@H](CCc2ccc(C(F)(F)F)c(Cl)c2)C(=O)N2CCC[C@H]2C(=O)NC2(CCCC2)C(=O)N(C)[C@@H](C(C)C)C(=O)N(C)[C@H](C(=O)N2CCCCC2)CC(=O)N1C [Compound 986] ([NMeL][Cha][Sar][Sar][NMeCha][Sar][hPhe(3-Cl-4-CF3)]P[Ac5c][NMeV][NMeD]-Piperidide; lactam N-11)	7.60
CCCC[C@@H]1NC(=O)[C@H](Cc2cccc(I)c2)NC(=O)CN(C)C(=O)[C@H](Cc2ccc(Cl)cc2)N(C)C(=O)CN(C)C(=O)CN(C)C(=O)[C@H]([C@@H](C)CC)NC(=O)[C@H](CC(C)C)N(C)C(=O)C[C@@H](C(=O)N2CCCCC2)N(C)C(=O)[C@H](CC(C)C)NC(=O)[C@H](Cc2ccccc2C)N(C)C1=O [Compound 696] ([NMeL]I[Sar][Sar][NMePhe(4-Cl)][Sar][Phe(3-I)][Nle][NMePhe(2-Me)]L[NMeD]-Piperidide; lactam N-11)	7.40
CC[C@H](C)[C@@H]1NC(=O)[C@H](C)N(C)C(=O)C[C@@H](C)NC(=O)[C@H](C(C)C)N(C)C(=O)C2(CCCC2)NC(=O)[C@@H]2CCCN2C(=O)[C@H](CCc2ccc(C(F)(F)F)c(Cl)c2)NC(=O)[C@@H](C)N(C)C(=O)[C@H](CC2CCCCC2)N(C)C(=O)[C@@H]2CCN2C(=O)[C@H](Cc2ccccc2)N(C)C1=O [Compound 2019] (cyclo([Ac5c][NMeV][d(β3hA)][NMeA]I[NMeF][Aze][NMeCha][dNMeA][hPhe(3-Cl-4-CF3)]P))	6.96
CC[C@H](C)[C@@H]1NC(=O)[C@H](CC(C)C)N(C)C(=O)C[C@@H](C(=O)N2CCCCC2)N(C)C(=O)[C@H](C2CCCCC2)N(C)C(=O)C2(CCCC2)NC(=O)[C@H](Cc2cscn2)N(C)C(=O)[C@H](CCc2ccc(C(F)(F)F)c(Cl)c2)NC(=O)CN(C)C(=O)[C@H](CC2CCCCC2)N(C)C(=O)CN(C)C(=O)CN(C)C1=O [Compound 500] ([NMeL]I[Sar][Sar][NMeCha][Sar][hPhe(3-Cl-4-CF3)][NMeAla(4-thiazolyl)][Ac5c][NMeChg][NMeD]-Piperidide; lactam N-11)	8.32
CC[C@H](C)[C@@H]1NC(=O)[C@H](C)N(C)C(=O)C[C@@H](C(=O)N2CCCC2)N(C)C(=O)[C@H](C(C)C)N(C)C(=O)C2(CCCC2)NC(=O)[C@@H]2CCCN2C(=O)[C@H](CCc2ccc(C(F)(F)F)c(Cl)c2)NC(=O)[C@@H](C)N(C)C(=O)[C@H](CC2CCCCC2)N(C)C(=O)[C@@H]2CCCN2C(=O)CN(C)C1=O [Compound 1715] ([NMeA]I[Sar]P[NMeCha][dNMeA][hPhe(3-Cl-4-CF3)]P[Ac5c][NMeV][NMeD]-Pyrrolidide; lactam N-11)	8.62
CC[C@H](C)[C@@H]1NC(=O)[C@H](CC(C)C)N(C)C(=O)C[C@@H](C(=O)N2CCCC2)N(C)C(=O)[C@H](C2CCCC2)N(C)C(=O)C2(CCCC2)NC(=O)[C@@H]2CCCN2C(=O)[C@H](CCc2ccc(C(F)(F)F)c(Cl)c2)NC(=O)CN(C)C(=O)[C@H](CC2CCCCC2)N(C)C(=O)CN(C)C(=O)CN(C)C1=O [Compound 1818] ([NMeL]I[Sar][Sar][NMeCha][Sar][hPhe(3-Cl-4-CF3)]P[Ac5c][NMeGly(cPent)][NMeD]-Pyrrolidide; lactam N-11)	9.40
CC[C@H](C)[C@@H]1NC(=O)[C@H](C)N(C)C(=O)C[C@@H](C)N(C)C(=O)[C@H](CC(C)C)NC(=O)C(C)(C)N(C)C(=O)[C@H](CC(C)C)NC(=O)[C@H](CCc2ccc(C(F)(F)F)c(Cl)c2)NC(=O)CN(C)C(=O)[C@H](Cc2ccc(C(F)(F)F)cc2)N(C)C(=O)[C@@H]2CCN2C(=O)[C@H](C)N(C)C1=O [Compound 1399] (cyclo([Aze][NMePhe(4-CF3)][Sar][hPhe(3-Cl-4-CF3)]L[NMeAib]L[NMedβ3hAla][NMeA]I[NMeA]))	7.15
CCCC[C@@H]1NC(=O)[C@H](Cc2cccc(I)c2)NC(=O)CN(C)C(=O)[C@H](Cc2ccc(Cl)cc2)N(C)C(=O)CN(C)C(=O)CN(C)C(=O)[C@H]([C@@H](C)CC)NC(=O)[C@H](CC(C)C)N(C)C(=O)C[C@@H](C(=O)N2CCCC2)N(C)C(=O)[C@H](CCC)NC(=O)C(C)(C)N(C)C1=O [Compound 1410] ([NMeL]I[Sar][Sar][NMePhe(4-Cl)][Sar][Phe(3-I)][Nle][NMeAib][Nva][NMeD]-Pyrrolidide; lactam N-11)	6.57
CC[C@H](C)[C@@H]1NC(=O)[C@H](CC2CCC2)N(C)C(=O)C[C@@H](C)NC(=O)[C@H](C(C)C)N(C)C(=O)C2(CCCC2)NC(=O)[C@@H]2CCCN2C(=O)[C@H](CCc2ccc(C(F)(F)F)c(Cl)c2)NC(=O)CN(C)C(=O)[C@H](CC2CCCCC2)N(C)C(=O)CN(C)C(=O)CN(C)C1=O [Compound 230] (cyclo([Ac5c][NMeV][d(β3hA)][NMeCba]I[Sar][Sar][NMeCha][Sar][hPhe(3-Cl-4-CF3)]P))	7.41
CC[C@H](C)[C@@H]1NC(=O)[C@H](C)N(C)C(=O)C[C@@H](C(=O)N2CCCCC2)N(C)C(=O)[C@H](C(C)C)N(C)C(=O)C2(CCCC2)NC(=O)[C@@H]2CCCN2C(=O)[C@H](CCc2ccc(C(F)(F)F)c(Cl)c2)NC(=O)[C@@H](C)N(C)C(=O)[C@H](CC2CCCCC2)N(C)C(=O)CN(C)C(=O)CN(C)C1=O [Compound 380] ([NMeA]I[Sar][Sar][NMeCha][dNMeA][hPhe(3-Cl-4-CF3)]P[Ac5c][NMeV][NMeD]-Piperidide; lactam N-11)	8.25
